Data published in US12590340B2, “Microfluidic plasmonic color reading chips and methods” (priority 2021, dated 2026).
In brackets after ≈: the same amount, converted by molar mass. Entries after “also recorded” stand apart in the source; their conditions may differ. Where two headings read alike, the source gives them in different places.

How the values were obtained:
Amp. Resistant E. coli [1] = experiment: antibiotic susceptibility study in spiked whole blood on the chip; assay type: cell-based, Escherichia coli; details: 100, 50, 20 CFU/mL, 32 μg/mL Ampicilin, up to 150 minutes
Protocol: For the spiked human sample experiment, human whole blood was centrifuged in two steps first at 150 rcf for 10 minutes followed by 7000 rcf for 3 min. It was subsequently spiked with 100, 50 or 20 CFU/mL and mixed with a solution of resazurin to a final concentration of 0.01%. No antibiotics were added for the control aliquots, 32 μg/mL ampicillin was added for resistant aliquots and 16 μg/mL kanamycin was added for susceptible aliquots. The aliquots were incubated at 37° C. different periods starting from 0 minutes incubation till 150 minutes with a time step of 5 minutes.
FIGS. 12A-12B show the results of an antibiotic susceptibility study conducted using whole blood spiked with Amp. Resistant E. coli to a final concentration of 100, 50, 20 CFU/mL in the presence of 32 μg/mL Ampicilin. […] The mean Gvalue/Bvalue (a) can be a credible parameter to follow the sequence in the color change and translate it to a quantifiable data FIG. 12B. […] Quantifiably, the time in which the α-value undergoes a step levitation is corresponding to the time the color transition is visible to the naked eye.

[2] = system: Ampicillin resistant Escherichia coli strain; experiment: antibiotic susceptibility profiling by resazurin color change on the plasmonic microfluidic chip; assay type: cell-based; details: for increase in green value of the 1-hour incubated aliquots compared to the zero minute incubation aliquot: 100 μg/mL ampicillin, 37° C.; for constant green value throughout the 1-hour incubation: 50 μg/mL kanamycin
Protocol: Ampicillin resistant Escherichia coli strain (Amp resistant E. coli, #211540, Merlan scientific, Ontario, Canada) was cultured overnight at 37° C. in Luria broth (LB) media supplemented with 100 μg/mL Ampicillin (#216858, Merlan scientific, Ontario, Canada). Next, the bacterial concentration was determined by optical density technique using a Spectronic 21D spectrophotometer. Subsequently, aliquots of different concentrations were prepared for the antibiotic susceptibility testing experiments.
(§1) Resistant E. coli, MRSA, and Cipro. Resistant PA respectively was used. The aliquots were incubated at 37° C. for different periods of time starting from 0 minutes incubation to a 60 minutes with a time step of 5 minutes. For susceptible bacterial samples, aliquots of Amp resistant E. coli were prepared (5×10^5 CFU/mL, 10^3 CFU/mL, 10^2 CFU/mL, and 50 CFU/mL), MRSA (5×10^5 CFU/mL), and Cipro. Resistant PA (5×10^5 CFU/mL). […] Resistant E. coli, MRSA, and Cipro. Resistant PA respectively was used. The aliquots were incubated at 37° C. different periods starting from 0 minutes incubation till 60 minutes with a time step of 5 minutes.
(§2) To rapidly detect the sample color change on the platform the reflectance spectra was measured using a Lambda 750 UV/Vis/NIR Spectrophotometer (PerkinElmer). The incident and collected light beams had normal incidence to the platform. Further, optical imaging was performed under highly controlled environment using Nikon Eclipse LV150 (Nikon) with a ×100, 0.9 NA air objective and Nikon digital sight ds-fi1 CCD camera with a white reference of R:0.75 G:1.0 B:2.36.51.
(§3) The microfluidic chip used was similar to that illustrated in FIG. 1B, having two characteristic chambers 1) antibiotic infusing chamber (AI) 103 equipped with bacteria entrapping micropillars 104p; and 2) plasmonic color-sensitive chamber (PCS) 105. The operational procedure of the microfluidic chip was to inject the bacteria containing growth media along with an antibiotic of interest and 0.02% resazurin solution from the inlet to get mixed in the Al mixing and entrapment chamber. Microfluidic chips were incubated for one hour through time intervals of 5 minutes. After incubation, the liquid in the Al chamber 103 was pushed towards the PCS chamber 105 sensing chamber while the bacteria was entrapped behind the micropillars 104p.
To conveniently convert the microscopy results to the feasible CIE color gamut, each picture of the data set loaded to MATLAB was read as a 3 layer matrix, each pixel has 3 components, one per layer, corresponding to its R, G and B value. The processing involved image crop and a sample selection. A simple average calculation was run individually to get an overall value for R, G and B components for each of the 5 samples generated. Following that, the mean across the collection was calculated. The error bar was computed at 1 standard deviation.
All images were processed and analyzed through a MATLAB™ script which allowed the analysis of multiple images simultaneously. The TIFF files were loaded and cropped to 80% of their original dimensions to avoid the coffee-ring effect. An option for the manual crop was also available. For each image, five samples of 480×480 pixels were randomly selected. Subsequently, for each the R, G and B values were averaged followed by the calculation of the mean RGB value and error across them. Succeeding their conversion to XYZ and x, y color systems. The RGB values of each image with its corresponding error bar were plotted against time. Additionally, the x and y values were scattered on the CIE1931 color space to analyze the color change through time.

Amp. Resistant E. coli [3] = experiment: antibiotic susceptibility study in spiked human urine on the chip; assay type: cell-based, Escherichia coli
Protocol: For the spiked human sample experiment, human urine was centrifuged at 5000 rcf for 5 minutes to remove large particles. It was subsequently spiked with 5×10^5 CFU/mL and mixed with a solution of resazurin to a final concentration of 0.02%. No antibiotics were added for the control aliquots, 100 μg/mL ampicillin was added for resistant aliquots and 50 μg/mL Kanamycin was added for susceptible aliquots. The aliquots were incubated at 37° C. different periods starting from 0 minutes incubation till 60 minutes with a time step of 5 minutes.
FIGS. 11A-11F show the results of an antibiotic susceptibility study conducted using human urine spiked with Amp. Resistant E. coli to a final concentration of 5×10^5 CFU/mL. The study utilized 3 aliquot sets of control (no antibiotic), resistant (100 μg/mL Ampicillin), and susceptible (50 μg/mL Kanamycin). […] The trend is highlighted with a white arrow on the 2D chromaticity diagram in FIG. 11B. […] are web plots of the red, green, and blue values analyzed from the bright-field microscopy of the sets. […] Green values increased overtime in the control and resistant sets (88 to 122 for resistant and 82 to 117 for control) showing the change towards green color and indicating the reduction of resazurin to resorufin by viable bacterial cells. […] Resistant E. coli.

MRSA [4] = experiment: antibiotic susceptibility profiling by resazurin color change on the plasmonic microfluidic chip; assay type: cell-based, Staphylococcus aureus; details: 5×10^5 CFU/mL, 4 ug/mL Oxacillin; for color response over 1-hour incubation (resistant / susceptible): 1 ug/mL Ciprofloxacin
Protocol: as §1, §2
The microfluidic chip used was similar to that illustrated in FIG. 1B, having two characteristic chambers 1) antibiotic infusing chamber (AI) 103 equipped with bacteria entrapping micropillars 104p; and 2) plasmonic color-sensitive chamber (PCS) 105. The operational procedure of the microfluidic chip was to inject the bacteria containing growth media along with an antibiotic of interest and 0.02% resazurin solution from the inlet to get mixed in the Al mixing and entrapment chamber. Microfluidic chips were incubated for one hour through time intervals of 5 minutes. […]
(§4) To conveniently convert the microscopy results to the feasible CIE color gamut, each picture of the data set loaded to MATLAB was read as a 3 layer matrix, each pixel has 3 components, one per layer, corresponding to its R, G and B value. […] Following that, the mean across the collection was calculated. […]
(§5) All images were processed and analyzed through a MATLAB™ script which allowed the analysis of multiple images simultaneously. […]

Cipro. Resistant PA [5] = experiment: as above; assay type: cell-based, Pseudomonas aeruginosa; details: 5×10^5 CFU/mL; 2 ug/mL Ciprofloxacin, 4 ug/mL Gentamicin
Protocol: as §1
To rapidly detect the sample color change on the platform the reflectance spectra was measured using a Lambda 750 UV/Vis/NIR Spectrophotometer (PerkinElmer). The incident and collected light beams had normal incidence to the platform. […]
as §4, §5

Cipro. Resistant PA [6] = details: 60 minutes, 5×10^5 CFU/mL
From the text: as §3

Amp resistant E. coli = experiment: minimum inhibitory concentration (MIC) study with resazurin on the chip; details: for y-value: 60 minutes, 5×10^5 CFU/mL
MRSA [7] = experiment: standard MIC assay using CLSI protocols; assay type: cell-based, Staphylococcus aureus; details: 96 well plate, overnight culture; 5×10^5 CFU/mL
Protocol: For the Clinical & Laboratory Standards Institute (CLSI) MIC protocol bacteria were streaked on LB agar overnight and resuspended in water aliquot. The aliquot was measured, and the bacteria concentration was adjusted to 10^6 CFU/mL in LB media. A 96 well plate with an antibiotic gradient from 128 μg/ml to 0.125 μg/ml in a 2-fold concentration dilution step was prepared with a positive control with no antibiotics. Next, the bacteria were introduced to each well of the 96 well plate for a final bacteria concentration of 5×10^5 CFU/mL. The well plates were cultured overnight.

MRSA [8] = experiment: minimum inhibitory concentration (MIC) study with resazurin on the chip; details: for y-value: 60 minutes, 5×10^5 CFU/mL
[9] = 5×10^5 CFU/mL, 100 μg/mL Ampicillin, 50 μg/mL Kanamycin

`CC1(C)S[C@@H]2[C@H](NC(=O)[C@H](N)c3ccccc3)C(=O)N2[C@H]1C(=O)O` [Ampicillin] was tested, and the color response (Amp. Resistant E. coli [1]) was “color change trend from dark blue at zero-minute incubation towards cyan”, the “increase of y values (2D chromaticity diagram) over 1-hour incubation, control and resistant aliquots” value ([2]; 100 μg/mL Ampicillin, 5×10^5 CFU/mL) was 0.19 to 0.33 and the “increase in green value of the 1-hour incubated aliquots compared to the zero minute incubation aliquot” value (“increase in green value” below) ([2]; 5×10^5 CFU/mL) was 194%. For the same molecule, the “increase in green value” value ([2]; 10^2 CFU/mL) was 142%, the “increase in green value” value ([2]; 10^3 CFU/mL) was 140% and the “increase in green value” value ([2]; 50 CFU/mL) was 131%. The “color response over 1-hour incubation (resistant / susceptible)” value [2, 9] was “color change from initial dark blue to green; also recorded: color-change from navy blue to green”, the “increase of green values over time (resistant set)” value (Amp. Resistant E. coli [3]; 100 μg/mL Ampicillin, 1-hour incubation) was 88 to 122 and the “increase in the y-value over time (resistant aliquots)” value (Amp. Resistant E. coli [3]; 100 μg/mL Ampicillin, 5×10^5 CFU/mL, 1-hour incubation) was 0.22 to 0.34. The “color response over 1-hour incubation” value (Amp. Resistant E. coli [3]; [9]) was “color change trend from dark blue at zero-minute incubation towards cyan; also recorded: color-change from navy blue to green”.

With `O=C(O)c1cn(C2CC2)c2cc(N3CCNCC3)c(F)cc2c1=O` [Ciprofloxacin] the “color response over 1-hour incubation (resistant / susceptible)” value (MRSA [4]) was “constant dark blue color; also recorded: susceptible”, the “color response over 1-hour incubation (resistant / susceptible)” value (Cipro. Resistant PA [5]) was “color change from initial dark blue to green; also recorded: resistant” and the y-value (Cipro. Resistant PA [6]; 8 μg/mL Ciprofloxacin) was 0.38. The y-value (Cipro. Resistant PA [6]; 16 μg/mL Ciprofloxacin) was 0.125 and the y-value (Cipro. Resistant PA [6]; 32 μg/mL Ciprofloxacin) was 0.175.

With `NC[C@H]1O[C@H](O[C@H]2[C@H](O)[C@@H](O[C@H]3O[C@H](CO)[C@@H](O)[C@H](N)[C@H]3O)[C@H](N)C[C@@H]2N)[C@H](O)[C@@H](O)[C@@H]1O` [Kanamycin] the y-value (Amp resistant E. coli; 4 μg/mL kanamycin) was 0.3, the y-value (Amp resistant E. coli; 8 μg/mL kanamycin) was 0.125 and the y-value (Amp resistant E. coli; 16 μg/mL kanamycin) was 0.175. For the same molecule, the MIC (Amp resistant E. coli; Escherichia coli, 1 h, read-out: minimum inhibitory concentration (MIC)) was 8 µg/mL (≈ 16.5 µM), the “constant green value throughout the 1-hour incubation” value ([2]; 5×10^5 CFU/mL) was 49.26±5.32 and the “constant green value throughout the 1-hour incubation” value ([2]; 10^2 CFU/mL) was 47.28±1.93. The “constant green value throughout the 1-hour incubation” value ([2]; 10^3 CFU/mL) was 48.12±3.21, the “constant green value throughout the 1-hour incubation” value ([2]; 50 CFU/mL) was 46.15±2.56 and the “constant blue value throughout the 1-hour incubation” value (Amp. Resistant E. coli [3]; 50 μg/mL Kanamycin) was 138.7±5.3. The “constant green value throughout the 1-hour incubation” value (Amp. Resistant E. coli [3]; 50 μg/mL Kanamycin) was 76.8±4.5, the “constant red value throughout the 1-hour incubation” value (Amp. Resistant E. coli [3]; 50 μg/mL Kanamycin) was 56.6±4.7 and the “y-value, constant (susceptible set)” value (Amp. Resistant E. coli [3]; 50 μg/mL Kanamycin, 5×10^5 CFU/mL, 1-hour incubation) was 0.205±0.025.

In the case of `Cc1onc(-c2ccccc2)c1C(=O)N[C@@H]1C(=O)N2[C@@H]1SC(C)(C)[C@@H]2C(=O)O` [Oxacillin], the “increase of y values (2D chromaticity diagram) over 1-hour incubation, control and resistant aliquots” value (MRSA [4]) is reported as 0.16 to 0.33, the “color response over 1-hour incubation (resistant / susceptible)” value (MRSA [4]) is reported as “color change from initial dark blue to green; also recorded: resistant” and the “MIC by standard MIC assay using CLSI protocols, compared with chip MIC” value (MRSA [7]) is reported as “confirmed the obtained MIC”. For the same molecule, the “inhibition of MRSA metabolism (color change from purple to cyan)” value (MRSA [8]; 16 μg/mL Oxacillin dose) was “not enough to fully inhibit”, the y-value (MRSA [8]; 16 μg/mL Oxacillin) was 0.3 and the y-value (MRSA [8]; 32 μg/mL Oxacillin) was 0.125. The y-value (MRSA [8]; 64 μg/mL Oxacillin) was 0.13, the MIC (MRSA [8]; Staphylococcus aureus, MRSA, 1 h, read-out: minimum inhibitory concentration (MIC)) was 32 µg/mL (≈ 79.7 µM) and the “category according to the CLSI breakpoints” value (MRSA [8]; from MIC) was “resistant”.

For Gentamicin, the “color response over 1-hour incubation (resistant / susceptible)” value (Cipro. Resistant PA [5]) was “constant dark blue color; also recorded: susceptible”.
